Patent publication US9375000B2, “Pesticidal arylpyrrolidines” (Bayer Intellectual Property GmbH, priority 2011, dated 2016)
Several values for one entry are separate records, joined by “and”; a condition that tells them apart may be missing. Identical values can stand only once.

Experiments:
Type in all cases: in vivo
[1] = system: Tobacco Cutworm (Spodoptera litura) Larvae; experiment: Tobacco cutworm (Spodoptera litura) larvae, sweet potato leaf dip test; settings: dead larvae after 7 days
Description: (§1) Unless not mentioned otherwise, the test solutions were prepared as follows:
(§2) Solvent: 3 parts by weight Dimethylformamide
(§3) Emulsifier: 1 part by weight Polyoxyethylene alkyl phenyl ether
(§4) In order to make an appropriate formulation of an active compound, 1 part by weight of the active compound is mixed with the above mentioned amount of solvent and emulsifier and the mixture is diluted with water to a prescribed concentration. Ammonium salt or ammonium salt and penetration enhancer in a dosage of 1000 ppm are added to the desired concentration if necessary.
Leaves of sweet potato were immersed in the test solution at the appropriate concentration, and the leaves were dried in air. The leaves were then placed in a petri dish having a diameter of 9 cm, and ten Spodoptera litura at third instar larvae were released therein. The petri dishes were placed in a temperature-controlled chamber at 25° C. After 2 days and 4 days more sweet potato leaves were added. After 7 days, the number of dead larvae was counted to calculate the insecticidal activity. An insecticidal activity of 100% means that all larvae were killed, whereas an insecticidal activity of 0% means that no larva was killed. In the current test, the results of two petri dishes for each treatment were averaged.

[2] = system: Two-Spotted Spider Mite (Tetranychus urticae); experiment: Two-spotted spider mite (Tetranychus urticae) spray test on kidney bean; settings: after 7 days
Method in brief: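 Kidney bean plants at the two-leaf stage carried 50-100 adult mites and were sprayed one day later with compound in DMF/polyoxyethylene alkyl phenyl ether diluted in water. Ammonium salt and penetration enhancer at 1000 ppm were added if needed. Acaricidal activity (% mites killed) was scored after 7 days in a greenhouse.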

[3] = system: Cucurbit Leaf Beetle (Aulacophora femoralis); experiment: Cucurbit leaf beetle (Aulacophora femoralis) cucumber leaf dip test; settings: after 7 days
Method in brief: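 Cucumber leaves dipped in compound formulated with DMF and polyoxyethylene alkyl phenyl ether, diluted in water, with ammonium salt or ammonium salt plus penetration enhancer at 1000 ppm added if necessary; dried leaves placed on sterilized soil with five second-instar larvae. Kept at 25° C; larval mortality counted after 7 days.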

[4] = system: Larvae of Spodoptera litura; experiment: Larvae of Spodoptera litura, method using artificial feeds; settings: artificial feed, after 7 days
Method in brief: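 Compound formulated in dimethylformamide with polyoxyethylene alkyl phenyl ether emulsifier, water-diluted and poured onto artificial diet. Five 3rd-instar Spodoptera litura larvae per cup, held at 25° C and 50-60% humidity. Mortality after 7 days expressed as pesticidal ratio.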

Thrips palmi = Thrips palmi spray test (THRIPL); settings: after 6 days
Description: as §1, §2, §3, §4
The compound solutions are sprayed to a cucumber seedling (Cucumis sativus). After drying, the treated plant is placed in a plastic stand. About 100 thrips-eggs (Thrips palmi) on a piece of filter paper are attached to the plant and covered with a cage to keep 100% humidity. The plant is kept in a room at 23° C. After 6 days activity in % is evaluated by feeding damage degree. An insecticidal activity of 100 means that there was no feeding damage, whereas an insecticidal activity of 0% means that there is no difference to the untreated control.

[5] = system: adult engorged female Boophilus microplus ticks; experiment: Test against Boophilus microplus (dip); settings: dip, after 7 days
Description: (§5) Solvent: dimethyl sulfoxide
To produce a suitable preparation of active compound, 10 mg of active compound are dissolved in 0.5 ml solvent, and the concentrate is diluted with water to the desired concentration. Eight to ten adult engorged female Boophilus microplus ticks are placed in perforated plastic beakers and immersed in aqueous compound solution for one minute. Ticks are transferred to a filter paper in a plastic tray. Egg deposition of fertile eggs is monitored after. After 7 days mortality in % is determined. 100% means that all the ticks have been killed; 0% means that none of the ticks have been killed.

Ctenocephalides felis = experiment: Test against Ctenocephalides felis (CTECFE), blood feeding; settings: application rate 100 ppm in cattle blood; after 2 days
Description: as §5
To produce a suitable preparation of active compound, 10 mg of active compound are dissolved in 0.5 ml solvent, and the concentrate is diluted with cattle blood to the desired concentration. Approximately 20 adult unfed (Ctenocepahlides felis) are placed in flea chambers. The blood chamber, sealed with parafilm on the bottom, are filled with cattle blood supplied with compound solution and placed on top of the flea chamber, so that the fleas are able to suck the blood. The blood chamber is heated to 37° C. whereas the flea chamber is kept at room temperature.
After 2 days mortality in % is determined. 100% means that all the fleas have been killed; 0% means that none of the fleas have been killed.

[6] = active compound concentration 20 ppm
[7] = active compound concentration 4 ppm
[8] = active compound concentration 100 ppm

SMILES: O=C(NCc1ccc(N2CCC(c3cc(C(F)(F)F)cc(C(F)(F)F)c3)(C(F)(F)F)C2O)nc1C(F)(F)F)C1CC1 (stereo not drawn) [A3-27]
- insecticidal activity [1, 6]: 100%
- acaricidal activity [2, 6]: 100%
- insecticidal activity [3, 6]: 100%
- insecticidal activity (pesticidal ratio) [4, 6]: 100%

SMILES: CCC(=O)NCc1ccc(N2CCC(c3cc(C(F)(F)F)cc(C(F)(F)F)c3)(C(F)(F)F)C2O)cc1C(F)(F)F (mixture of isomers) [A1-57]
- acaricidal activity [2, 7]: 100%
- insecticidal activity [3, 7]: 100%
- insecticidal activity (pesticidal ratio) [4, 7]: 100%
- insecticidal activity (by feeding damage degree) (Thrips palmi; [6]): 100%
- activity (mortality) ([5]; application rate 100 ppm): 90%

SMILES: CS(=O)(=O)CC(=O)NCc1cnc(N2CCC(c3cc(Cl)cc(Cl)c3)(C(F)(F)F)C2O)nc1C(F)(F)F (stereo not drawn) [A4-11]
- insecticidal activity [1, 7]: 100%
- acaricidal activity [2, 7]: 100%
- insecticidal activity (by feeding damage degree) (Thrips palmi; [6]): 90%

SMILES: CC(=O)NCc1ccc(N2CCC(c3cc(Cl)c(F)c(Cl)c3F)(C(F)(F)F)C2O)cc1C(F)(F)F (stereo not drawn) [A1-282]
- insecticidal activity [1, 7]: 100%
- acaricidal activity [2, 7]: 100%
- insecticidal activity [3, 6]: 100%
- activity (mortality) ([5]; application rate 100 ppm): 95%

SMILES: O=C(NCc1ccc(N2CCC(c3cc(F)cc(Cl)c3)(C(F)(F)F)C2O)cc1C(F)(F)F)C1CC1 (stereo not drawn) [A1-242]
- insecticidal activity [1, 7]: 100%
- acaricidal activity [2, 7]: 100%
- insecticidal activity [3, 6]: 100%
- insecticidal activity (by feeding damage degree) (Thrips palmi; [6]): 90%

SMILES: CC(=O)NCc1cnc(N2CCC(c3cc(Cl)c(Cl)c(Cl)c3)(C(F)(F)F)C2O)nc1C(F)(F)F (stereo not drawn) [A4-12]
- insecticidal activity [1, 7]: 100%
- acaricidal activity [2, 7]: 100%
- insecticidal activity (by feeding damage degree) (Thrips palmi; [6]): 90%

SMILES: CS(=O)(=O)CC(=O)NCc1cnc(N2CCC(c3cc(Cl)c(Cl)c(Cl)c3)(C(F)(F)F)C2O)cc1C(F)(F)F (stereo not drawn) [A5-22]
- insecticidal activity [1, 7]: 100%
- acaricidal activity [2, 6]: 100%
- insecticidal activity [3, 6]: 100%
- insecticidal activity (by feeding damage degree) (Thrips palmi; [8]): 98%

SMILES: CC(NC(=O)C1CC1)c1ccc(N2CC(c3cc(C(F)(F)F)cc(C(F)(F)F)c3)(C(F)(F)F)CC2=O)cc1 (stereo not drawn) [C2-27-b]
- insecticidal activity [1, 6]: 100%
- acaricidal activity [2, 6]: 100%
- insecticidal activity [3, 6]: 100%
- insecticidal activity (pesticidal ratio) [4, 6]: 100%

SMILES: CCC(=O)NCc1cnc(N2CCC(c3cc(Cl)c(F)c(Cl)c3F)(C(F)(F)F)C2O)cc1C(F)(F)F (stereo not drawn) [A5-79]
- insecticidal activity [1, 7]: 100%
- acaricidal activity [2, 7]: 100%
- insecticidal activity (by feeding damage degree) (Thrips palmi; [6]): 90%

SMILES: O=C(NCc1cnc(N2CCC(c3cc(Cl)c(Cl)c(Cl)c3)(C(F)(F)F)C2O)cc1C(F)(F)F)C1CC1 (stereo not drawn) [A5-16]
- insecticidal activity [1, 7]: 100%
- acaricidal activity [2, 6]: 100%
- insecticidal activity [3, 6]: 100%
- insecticidal activity (by feeding damage degree) (Thrips palmi; [8]): 100%

SMILES: O=C(CC(F)(F)F)NCc1ccc(N2CCC(c3cc(Cl)cc(Cl)c3)(C(F)(F)F)C2O)cc1Br (mixture of isomers) [A1-112]
- insecticidal activity [1, 7]: 100%
- acaricidal activity [2, 7]: 100%
- insecticidal activity [3, 6]: 100%
- insecticidal activity (by feeding damage degree) (Thrips palmi; [6]): 98%

SMILES: C[S+]([O-])CC(=O)NCc1ccc(N2CCC(c3cc(C(F)(F)F)cc(C(F)(F)F)c3)(C(F)(F)F)C2O)cc1Cl (stereo not drawn) [A1-32]
- acaricidal activity [2, 6]: 100%
- insecticidal activity [3, 6]: 100%
- insecticidal activity (pesticidal ratio) [4, 6]: 100%
- activity (mortality) ([5]; application rate 20 ppm): 95%

SMILES: CS(=O)(=O)CC(=O)NCc1ccc(N2CCC(c3cc(C(F)(F)F)cc(C(F)(F)F)c3)(C(F)(F)F)C2O)nc1Br (mixture of isomers) [A3-165]
- acaricidal activity [2, 7]: 90%
- insecticidal activity [3, 7]: 100%
- insecticidal activity [3, 6]: 100%
- insecticidal activity (pesticidal ratio) [4, 7]: 100%
- insecticidal activity (pesticidal ratio) [4, 6]: 100%
- activity (mortality) ([5]; application rate 100 ppm): 90%

SMILES: O=C(NCc1cnc(N2CCC(c3cc(Cl)cc(Cl)c3)(C(F)(F)F)C2O)nc1C(F)(F)F)C1CC1 (stereo not drawn) [A4-5]
- insecticidal activity [1, 7]: 100%
- acaricidal activity [2, 7]: 100%
- insecticidal activity [3, 6]: 100%
- insecticidal activity (by feeding damage degree) (Thrips palmi; [6]): 90%

SMILES: CCCC(=O)NCc1ccc(N2CCC(c3cc(Cl)c(Cl)c(Cl)c3)(C(F)(F)F)C2O)nc1C(F)(F)F (stereo not drawn) [A3-14]
- acaricidal activity [2, 7]: 100%
- acaricidal activity [2, 6]: 100%
- insecticidal activity [3, 7]: 100%
- insecticidal activity [3, 6]: 100%
- insecticidal activity (pesticidal ratio) [4, 7]: 100%
- insecticidal activity (pesticidal ratio) [4, 6]: 100%
- activity (mortality) (Ctenocephalides felis): 95%

SMILES: CCC(=O)NC(C)c1ccc(N2CCC(c3cc(Cl)c(Cl)c(Cl)c3)(C(F)(F)F)C2O)cc1 (mixture of isomers) [A2-13]
- insecticidal activity [1, 6]: 100%
- acaricidal activity [2, 6]: 100%
- insecticidal activity (pesticidal ratio) [4, 6]: 100%

SMILES: CCC(=O)NCc1ccc(N2CCC(c3cc(Cl)c(Cl)c(Cl)c3)(C(F)(F)F)C2O)cc1 (stereo not drawn) [A1-384]
- insecticidal activity [1, 7]: 100%
- acaricidal activity [2, 7]: 98%
- insecticidal activity [3, 6]: 100%
- insecticidal activity (by feeding damage degree) (Thrips palmi; [6]): 90%

SMILES: O=C(NCc1ccc(N2CCC(c3cc(Cl)c(Cl)c(Cl)c3)(C(F)(F)F)C2O)nc1C(F)(F)F)C1CC1 (stereo not drawn) [A3-16]
- insecticidal activity [1, 6]: 100%
- acaricidal activity [2, 6]: 100%
- insecticidal activity [3, 6]: 100%
- insecticidal activity (pesticidal ratio) [4, 6]: 100%

SMILES: O=C(CC(F)(F)F)NCc1cnc(N2CCC(c3cc(Cl)cc(Cl)c3)(C(F)(F)F)C2O)nc1C(F)(F)F (stereo not drawn) [A4-7]
- insecticidal activity [1, 7]: 100%
- acaricidal activity [2, 7]: 100%
- insecticidal activity [3, 6]: 100%
- insecticidal activity (by feeding damage degree) (Thrips palmi; [6]): 90%

SMILES: CCC(=O)NCc1cnc(N2CCC(c3cc(Cl)c(Cl)c(Cl)c3)(C(F)(F)F)C2O)cc1C(F)(F)F (stereo not drawn) [A5-13]
- insecticidal activity [1, 7]: 100%
- acaricidal activity [2, 6]: 100%
- acaricidal activity [2, 8]: 98%
- insecticidal activity [3, 6]: 100%
- insecticidal activity (pesticidal ratio) [4, 7]: 100%
- insecticidal activity (by feeding damage degree) (Thrips palmi; [8]): 100% and 90%

SMILES: O=C(CC(F)(F)F)NCc1cnc(N2CCC(c3cc(Cl)c(Cl)c(Cl)c3)(C(F)(F)F)C2O)cc1C(F)(F)F (stereo not drawn) [A5-18]
- insecticidal activity [1, 7]: 100%
- acaricidal activity [2, 6]: 100%
- insecticidal activity [3, 6]: 100%
- insecticidal activity (by feeding damage degree) (Thrips palmi; [8]): 100%
- activity (mortality) (Ctenocephalides felis): 90%

SMILES: CCC(=O)NCc1cnc(N2CCC(c3cc(Cl)c(F)c(Cl)c3F)(C(F)(F)F)C2O)nc1C(F)(F)F (stereo not drawn) [A4-112]
- insecticidal activity [1, 7]: 100%
- acaricidal activity [2, 7]: 100%
- insecticidal activity [3, 6]: 100%
- insecticidal activity (by feeding damage degree) (Thrips palmi; [6]): 98%

SMILES: O=C(NCc1ccc(N2CCC(c3cc(Cl)cc(Cl)c3)(C(F)(F)F)C2O)cc1Br)C1CC1 (mixture of isomers) [A1-110]
- insecticidal activity [1, 7]: 100%
- acaricidal activity [2, 7]: 100%
- insecticidal activity [3, 6]: 100%
- insecticidal activity (by feeding damage degree) (Thrips palmi; [6]): 98%
- activity (mortality) ([5]; application rate 100 ppm): 90%

SMILES: CCC(=O)NCc1ccc(N2CCC(c3cc(Cl)c(Cl)c(C(F)(F)F)c3)(C(F)(F)F)C2O)cc1C(F)(F)F (stereo not drawn) [A1-349]
- insecticidal activity [1, 7]: 100%
- acaricidal activity [2, 6]: 100%
- insecticidal activity [3, 6]: 100%

SMILES: CCC(=O)NCc1ccc(N2CCC(c3cc(Cl)c(Cl)c(Cl)c3)(C(F)(F)F)C2O)nc1Cl (stereo not drawn) [A3-101]
- insecticidal activity [1, 7]: 100%
- acaricidal activity [2, 7]: 100%
- insecticidal activity [3, 6]: 100%
- insecticidal activity (by feeding damage degree) (Thrips palmi; [6]): 98%
